According to patent US11660311B2, “Cyclic dinucleotides as anticancer agents” (priority 2017, dated 2023):
Where two headings read alike, the source gives them in different places.

How the values were obtained:
[1] = tested on: IRF pathway in THP1-Dual STING reporter cells; assay: STING THP1 Reporter Assay, IRF pathway (secreted Lucia luciferase); type: cell-based, human; settings: 100% = 100 μM cGAMP
Description: (§1) THP1-Dual™ cells were derived from the human THP-1 monocyte cell line by stable integration of two inducible reporter constructs. To this end, THP1-Dual™ cells allow the simultaneous study of the NF-κB pathway, by monitoring the activity of SEAP, and the IRF pathway by assessing the activity of a secreted luciferase (Lucia). Both reporter proteins are readily measurable in the cell culture supernatant when using QUANTI-Blue™, a SEAP detection reagent, and QUANTI-Luc™, a luciferase detection reagent.
(§2) THP1-Dual™ cells induce the activation of NF-κB in response to STING agonists. They also trigger the IRF pathway upon stimulation with STING agonists, such as cGAMP. Here, the THP-1-Dual cells were used to assess STING binders for function on the cellular level.
(§3) Serial dilutions of compounds in DMSO were added to low volume 384 well plates at 100 nl/well using an ECHO acoustic dispenser (Labcyte, model 550) to achieve final starting concentration of 100 μM in cell suspension. […] One column of the plate was reserved for treatment with cGAMP at 100 μM for 100% activation calculation and one column for no treatment (DMSO only) for baseline activation. Plates were then incubated in 37° C. incubator at 5% CO2 for 20 hours.
(§4) In the SEAP assay, 5 μl of 2× QuantiBlue (Invivogen, cat #Rep-qb2) is added to 384 well black plates seeded with THP1 cells and incubated at 37° C. for 2 hours. Plates were read on the Envision (Perkin Elmer) at 620 nm wavelength (OD620). In the luciferase assay, 5 μl of Quantiluc (Invivogen, Rep-qlc2) is added to white 384 well plates seeded with THP1 cells and read at 5 minutes on the Envision (Perkin Elmer) using a luminescence protocol (RLU). For both cell lines, 100% activation was determined by value (RLU) of THP-1 Dual STING cells stimulated with 100 μM cGAMP (Invivogen, cat #TLRL-NACGA23-5).

[2] = tested on: NF-κB pathway in THP1-Dual STING reporter cells; assay: STING THP1 Reporter Assay, NF-κB pathway (SEAP); type: cell-based, human; settings: 100% = 100 μM cGAMP
Description: as §1, §2, §3, §4

[3] = target: T1, STING AQ: His-TVMV-S-hSTING(155-341)-G230A-R293Q (Homo sapiens, UniProt Q86WV6, G230A/H232R/R293Q); assay: STING HTRF Binding Assay, STING AQ; settings: 20 nM His-tagged STING cytoplasmic domain, 40 nM fluorescein-labeled cGAMP analog probe, one hour; read-out: HTRF Binding Assays IC50 (μM) STING AQ
T1 construct: STING AQ: His-TVMV-S-hSTING(155-341)-G230A-R293Q
T1 sequence (Q86WV6 with tags, fused parts or gaps G230A/H232R/R293Q): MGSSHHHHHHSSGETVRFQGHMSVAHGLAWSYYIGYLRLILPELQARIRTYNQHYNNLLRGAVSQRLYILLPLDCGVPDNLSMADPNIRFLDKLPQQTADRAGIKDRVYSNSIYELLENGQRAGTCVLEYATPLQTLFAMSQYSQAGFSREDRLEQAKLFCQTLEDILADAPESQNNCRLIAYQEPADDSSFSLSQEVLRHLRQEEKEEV
Description: (§5) A time resolved FRET-based competition binding assay was used to assess test article binding to STING WT and STING AQ. His-tagged STING cytoplasmic domain (WT or AQ) at a concentration of 20 nM was incubated with 2.5 nM Tb-labeled anti-His antibody, test compound, and fluorescein-labeled cGAMP analog probe (BioLog cat. no. C195) at a concentration of 200 nM (STING WT) or 40 nM (STING AQ) in PBS containing 0.005% Tween-20 and 0.1% BSA for one hour. Fluorescence at 495 nm and 520 nm was measured using an EnVision microplate reader to quantify FRET between Tb-labeled anti-His antibody and fluorescein-labeled probe. Background was defined as the signal obtained in the absence of STING protein, and background subtracted FRET ratios were normalized to the maximum signal obtained in the absence of test compound. These values were converted to a percent inhibition. Percent inhibition was determined for test compounds at 11 concentrations. The IC50, defined as the concentration of competing test compound needed to reduce specific binding of the probe by 50%, was calculated using the 4 parameter logistic equation to fit the data

[4] = target: T2, STING WT: His-TVMV-S-hSTING(155-341)-H232R (Homo sapiens, UniProt Q86WV6, H232R); assay: STING HTRF Binding Assay, STING WT; settings: 20 nM His-tagged STING cytoplasmic domain, 200 nM fluorescein-labeled cGAMP analog probe, one hour; read-out: HTRF Binding Assays IC50 (μM) STING WT
T2 construct: STING WT: His-TVMV-S-hSTING(155-341)-H232R
T2 sequence (Q86WV6 with tags, fused parts or gaps H232R): as the sequence (Q86WV6 with tags, fused parts or gaps G230A/H232R/R293Q) above, with A99G, Q162R counted along it
Description: as §5

[5] = THP1-Dual cells, 10% human plasma, 20 hours, luciferase, read-out: THP1 Reporter Assays EC50 (μM) IRF3
[6] = THP1-Dual cells, 10% human plasma, 20 hours, SEAP, read-out: THP1 Reporter Assays EC50 (μM) NFkB
[7] = read-out: THP1 Reporter Assays EC50 (μM) IRF3, THP1-Dual cells, 10% human plasma, 20 hours, luciferase
[8] = read-out: THP1 Reporter Assays EC50 (μM) NFkB, THP1-Dual cells, 10% human plasma, 20 hours, SEAP
[9] = Homo sapiens, THP1-Dual, 20 h, THP1-Dual cells, 10% human plasma, 20 hours, luciferase, read-out: THP1 Reporter Assays EC50 (μM) IRF3
[10] = Homo sapiens, THP1-Dual, 20 h, read-out: THP1 Reporter Assays EC50 (μM) NFkB, THP1-Dual cells, 10% human plasma, 20 hours, SEAP
[11] = Homo sapiens, THP1-Dual, 20 h, THP1-Dual cells, 10% human plasma, 20 hours, SEAP, read-out: THP1 Reporter Assays EC50 (μM) NFkB

Row | SMILES | EC50 [1, 5] | EC50 [2, 6] | IC50 [3] | IC50 [4] | EC50 [1, 7] | EC50 [2, 8] | EC50 [1, 9] | EC50 [2, 10] | EC50 ([1]; Homo sapiens, THP1-Dual, 20 h, read-out: THP1 Reporter Assays EC50 (μM) IRF3, THP1-Dual cells, 10% human plasma, 20 hours, luciferase) | EC50 [2, 11]
1 | Nc1ncnc2c1ncn2[C@@H]1O[C@@H]2COP(=O)(S)O[C@H]3[C@@H](O)[C@H](n4cnc5c(=O)n6ccnc6[nH]c54)O[C@@H]3COP(=O)(S)O[C@H]2[C@H]1F (single isomer, unassigned) [Example 1-1] | 0.38 µM | 0.94 µM | 0.01 µM | 0.02 µM | – | – | – | – | – | –
2 | NC(=O)c1cccc2c1nnn2[C@@H]1O[C@@H]2COP(=O)(O)O[C@H]3[C@@H](F)[C@H](n4cnc5c(N)ncnc54)O[C@@H]3COP(=O)(S)O[C@H]2[C@H]1F (single isomer, unassigned) [Example 8-2] | > 100 µM | > 100 µM | 0.07 µM | 2.23 µM | – | – | – | – | – | –
3 | Nc1ncnc2c1ncn2[C@@H]1O[C@@H]2COP(=O)(S)O[C@H]3[C@@H](O)[C@H](n4cnc5c4ncn4ncnc54)O[C@@H]3COP(=O)(O)O[C@H]2[C@H]1F (single isomer, unassigned) [Example 10-1] | – | – | 0.04 µM | 2.5 µM | > 100 µM | > 100 µM | – | – | – | –
4 | Nc1ncnc2c1ncn2[C@@H]1O[C@@H]2COP(=O)(O)O[C@H]3[C@@H](F)[C@H](n4cnc5c4ncn4ccnc54)O[C@@H]3COP(=O)(O)O[C@H]2[C@H]1O [Example 20] | – | – | 0.01 µM | 0.04 µM | – | – | 3.71 µM | 13.6 µM | – | –
5 | Nc1ncnc2c1ncn2[C@@H]1O[C@@H]2COP(=O)(S)O[C@H]3[C@@H](O)[C@H](n4nnc5c([N+](=O)[O-])cccc54)O[C@@H]3COP(=O)(O)O[C@H]2[C@H]1F (single isomer, unassigned) [Example 13-1] | – | – | 1.44 µM | 8.45 µM | – | – | – | > 100 µM | > 100 µM | –
6 | Nc1ncnc2c1ncn2[C@@H]1O[C@@H]2COP(=O)(S)O[C@H]3[C@@H](F)[C@H](n4cnc5c4ncn4ncnc54)O[C@@H]3COP(=O)(S)O[C@H]2[C@H]1F (single isomer, unassigned) [Example 12-2] | – | 2.64 µM | 0.002 µM | 0.01 µM | 0.2 µM | – | – | – | – | –
7 | NC(=O)c1cccc2c1nnn2[C@@H]1O[C@@H]2COP(=O)(O)O[C@H]3[C@@H](F)[C@H](n4cnc5c4ncn4ccnc54)O[C@@H]3COP(=O)(O)O[C@H]2[C@H]1F [Example 9] | – | – | 0.42 µM | 84.1 µM | – | – | > 100 µM | > 100 µM | – | –
8 | Nc1ncnc2c1ncn2[C@@H]1O[C@@H]2COP(=O)(S)O[C@H]3[C@@H](F)[C@H](n4cnc5c4ncn4ccnc54)O[C@@H]3COP(=O)(S)O[C@H]2[C@H]1F (single isomer, unassigned) [Example 21-2] | – | – | 0.01 µM | 0.02 µM | 0.13 µM | 0.56 µM | – | – | – | –
9 | Nc1ncnc2c1ncn2[C@@H]1O[C@@H]2COP(=O)(O)O[C@H]3[C@@H](F)[C@H](n4cnc5c4ncn4ccnc54)O[C@@H]3COP(=O)(O)O[C@H]2[C@H]1F [Example 3] | – | – | 0.02 µM | 0.04 µM | – | – | 5.76 µM | – | – | 24.4 µM
10 | NC(=O)c1cccc2c1nnn2[C@@H]1O[C@@H]2COP(=O)(S)O[C@H]3[C@@H](F)[C@H](n4cnc5c(N)ncnc54)O[C@@H]3COP(=O)(S)O[C@H]2[C@H]1F (single isomer, unassigned) [Example 4-2] | – | – | 0.24 µM | 8.1 µM | – | – | > 100 µM | – | – | > 100 µM
11 | Nc1ncnc2c1ncn2[C@@H]1O[C@@H]2COP(=O)(S)O[C@H]3[C@@H](F)[C@H](n4cnc5c4ncn4ccnc54)O[C@@H]3COP(=O)(S)O[C@H]2[C@H]1F (single isomer, unassigned) [Example 21-3] | – | – | 0.01 µM | 0.02 µM | 0.14 µM | 0.53 µM | – | – | – | –
